PubChem BioAssay AID2060605 (Molecular Pharmacology Branch, DTP, NCI, 2025)

System: 947758-054-R-J2-PDC spheroid growth, percent test/control
Test: Anticancer human tumor 947758-054-R-J2-PDC patient-derived colon adenocarcinoma cell line growth inhibition [CLK]
Settings: spheroids with HUVEC and MSC; for IC50: curve of first compound; for viability, T/C: stronger effect = lower value; active means viability on the fitted dose curve at most 10% of control; inactive means the rest
Procedure, shortened: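 Patient-derived tumor cells grown as complex spheroids with HUVEC endothelial cells and mesenchymal stem cells, treated with drug combinations. Concentrations descend in half-log steps from near clinical Cmax, or from 10 microM if Cmax unknown.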

[1] = second compound 0.0316 µM, first compound 0.0316 µM
[2] = second compound 0.0316 µM, first compound 0.1 µM
[3] = second compound 0.0316 µM, first compound 0.316 µM
[4] = second compound 0.0316 µM, first compound 1 µM
[5] = second compound 0.1 µM, first compound 0.0316 µM
[6] = second compound 0.1 µM, first compound 0.1 µM
[7] = second compound 0.1 µM, first compound 0.316 µM
[8] = second compound 0.1 µM, first compound 1 µM
[9] = second compound 0.316 µM, first compound 0.0316 µM
[10] = second compound 0.316 µM, first compound 0.1 µM
[11] = second compound 0.316 µM, first compound 0.316 µM
[12] = second compound 0.316 µM, first compound 1 µM
[13] = second compound 1 µM, first compound 0.0316 µM
[14] = second compound 1 µM, first compound 0.1 µM
[15] = second compound 1 µM, first compound 0.316 µM
[16] = second compound 1 µM, first compound 1 µM
[17] = second compound 3.16 µM, first compound 0.0316 µM
[18] = second compound 3.16 µM, first compound 0.1 µM
[19] = second compound 3.16 µM, first compound 0.316 µM
[20] = second compound 3.16 µM, first compound 1 µM
[21] = second compound 10 µM, first compound 0.0316 µM
[22] = second compound 10 µM, first compound 0.1 µM
[23] = second compound 10 µM, first compound 0.316 µM
[24] = second compound 10 µM, first compound 1 µM
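Further: spheroids exposed to compounds for one week before readout.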
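Wherever viability, T/C is given: 100% = DMSO vehicle control wells.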

CC(Nc1ccc2c(c1)OCCn1cc(N3C(=O)OCC3C(F)F)nc1-2)C(N)=O (centres undefined) + CNC(=O)c1ccc(Nc2nc(OC3CCCC3)c3c(-c4ccc5nc(C)oc5c4)c[nH]c3n2)c(OC)c1
59.4 nM: IC50 (second compound 0.316 µM)
active: viability, T/C [16] 10.8% | viability, T/C (second compound 1 µM, first compound 3.16 µM) 10.8% | viability, T/C (second compound 1 µM, first compound 10 µM) 4.05% | viability, T/C [19] 9.12% | viability, T/C [20] 8.23% | viability, T/C (second compound 3.16 µM, first compound 3.16 µM) 5.63% | viability, T/C (second compound 3.16 µM, first compound 10 µM) 4.88% | viability, T/C [23] 10.3% | viability, T/C [24] 6.53% | viability, T/C (second compound 10 µM, first compound 3.16 µM) 4.37% | viability, T/C (second compound 10 µM, first compound 10 µM) 4.21%
75.4 nM: IC50 (second compound 0.0316 µM)
94.9 nM: IC50 (second compound 0.1 µM)
< 31.6 nM: IC50 (second compound 1 µM) | IC50 (second compound 3.16 µM) | IC50 (second compound 10 µM)
inactive: viability, T/C [1] 55.6% | viability, T/C [2] 51.5% | viability, T/C [3] 39.4% | viability, T/C [4] 35.8% | viability, T/C (second compound 0.0316 µM, first compound 3.16 µM) 39% | viability, T/C (second compound 0.0316 µM, first compound 10 µM) 33.7% | viability, T/C [5] 70.7% | viability, T/C [6] 46.2% | viability, T/C [7] 36.2% | viability, T/C [8] 35% | viability, T/C (second compound 0.1 µM, first compound 3.16 µM) 28% | viability, T/C (second compound 0.1 µM, first compound 10 µM) 20.8% | viability, T/C [9] 64.6% | viability, T/C [10] 37.9% | viability, T/C [11] 16.9% | viability, T/C [12] 22.7% | viability, T/C (second compound 0.316 µM, first compound 3.16 µM) 21.6% | viability, T/C (second compound 0.316 µM, first compound 10 µM) 14.4% | viability, T/C [13] 34.1% | viability, T/C [14] 19.7% | viability, T/C [15] 12.5% | viability, T/C [17] 31.8% | viability, T/C [18] 14.3% | viability, T/C [21] 20.7% | viability, T/C [22] 10.9%

CCN1CCN(Cc2ccc(Nc3ncc(F)c(-c4cc(F)c5nc(C)n(C(C)C)c5c4)n3)nc2)CC1 + CNC(=O)c1ccc(Nc2nc(OC3CCCC3)c3c(-c4ccc5nc(C)oc5c4)c[nH]c3n2)c(OC)c1
6.65 nM: IC50 (second compound 1 µM)
< 3.16 nM: IC50 (second compound 3.16 µM) | IC50 (second compound 10 µM)
792 nM: IC50 (second compound 0.0316 µM)
46 nM: IC50 (second compound 0.316 µM)
263 nM: IC50 (second compound 0.1 µM)
inactive: viability, T/C (second compound 0.0316 µM, first compound 0.00316 µM) 96.1% | viability, T/C (second compound 0.0316 µM, first compound 0.01 µM) 94.5% | viability, T/C [1] 90.7% | viability, T/C [2] 73% | viability, T/C [3] 61.5% | viability, T/C [4] 46.9% | viability, T/C (second compound 0.1 µM, first compound 0.00316 µM) 102% | viability, T/C (second compound 0.1 µM, first compound 0.01 µM) 73.2% | viability, T/C [5] 61.4% | viability, T/C [6] 65.8% | viability, T/C [7] 57.4% | viability, T/C [8] 32.8% | viability, T/C (second compound 0.316 µM, first compound 0.00316 µM) 101% | viability, T/C (second compound 0.316 µM, first compound 0.01 µM) 71.3% | viability, T/C [9] 39.5% | viability, T/C [10] 60.1% | viability, T/C [11] 38.9% | viability, T/C [12] 22.3% | viability, T/C (second compound 1 µM, first compound 0.00316 µM) 59.2% | viability, T/C (second compound 1 µM, first compound 0.01 µM) 46.8% | viability, T/C [13] 31.9% | viability, T/C [14] 31% | viability, T/C [15] 42.4% | viability, T/C [16] 19.8% | viability, T/C (second compound 3.16 µM, first compound 0.00316 µM) 52.2% | viability, T/C (second compound 3.16 µM, first compound 0.01 µM) 32.5% | viability, T/C [17] 39.8% | viability, T/C [18] 34% | viability, T/C [19] 33.7% | viability, T/C [20] 25.1% | viability, T/C (second compound 10 µM, first compound 0.00316 µM) 40% | viability, T/C (second compound 10 µM, first compound 0.01 µM) 41.2% | viability, T/C [21] 35.6% | viability, T/C [22] 31.6% | viability, T/C [23] 21.1% | viability, T/C [24] 21.1%
